Reference: ChEMBL document CHEMBL1201862, “PubChem BioAssay data set” (2004)
The source made the active and inactive calls.

Key:
[1] = target: T1, Mannose-6-phosphate isomerase (Homo sapiens, UniProt P34949); experiment: inhibitors of human PMI, primary screen, biochemical, fluorescence intensity, coupled assay (AID 1209)
T1 sequence (P34949 whole entry): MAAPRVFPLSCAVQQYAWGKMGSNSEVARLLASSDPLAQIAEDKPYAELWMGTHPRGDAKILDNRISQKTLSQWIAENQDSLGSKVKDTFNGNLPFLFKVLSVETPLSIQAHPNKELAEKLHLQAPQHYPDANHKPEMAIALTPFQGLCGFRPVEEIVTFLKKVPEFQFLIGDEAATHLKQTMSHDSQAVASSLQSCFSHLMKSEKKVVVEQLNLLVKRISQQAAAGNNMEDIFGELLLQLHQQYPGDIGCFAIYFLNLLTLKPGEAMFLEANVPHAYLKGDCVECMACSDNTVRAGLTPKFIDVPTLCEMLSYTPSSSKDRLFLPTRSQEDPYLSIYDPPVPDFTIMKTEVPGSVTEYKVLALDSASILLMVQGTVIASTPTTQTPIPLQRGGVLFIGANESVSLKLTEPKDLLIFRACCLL

cells [2] = assay type: functional
[3] = target: T1, Mannose-6-phosphate isomerase; experiment: human PMI inhibitors, high substrate, primary screen, biochemical, fluorescence intensity, high mannose 6-phosphate (AID 1220)
[4] = target: Protein-tyrosine kinase 2-beta (Homo sapiens, UniProt Q14289);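 further: potency of inhibitors of PYK2 kinase phosphorylation of poly-GT substrate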
[5] = target: T2, Heat shock factor protein 1 (Mus musculus, UniProt P38532); experiment: inhibition of MG132-induced HSE-luciferase signal, confirmation, cell-based, NIH3T3, luminescence, dose retest (AID 2382); assay type: functional;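 further: NIH3T3 fibroblasts with HSF1-driven luciferase reporter stressed by proteasome inhibitor MG132; luminescence from HSF1-driven luciferase expression after 8 hours of MG132 stress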
T2 sequence (P38532 whole entry): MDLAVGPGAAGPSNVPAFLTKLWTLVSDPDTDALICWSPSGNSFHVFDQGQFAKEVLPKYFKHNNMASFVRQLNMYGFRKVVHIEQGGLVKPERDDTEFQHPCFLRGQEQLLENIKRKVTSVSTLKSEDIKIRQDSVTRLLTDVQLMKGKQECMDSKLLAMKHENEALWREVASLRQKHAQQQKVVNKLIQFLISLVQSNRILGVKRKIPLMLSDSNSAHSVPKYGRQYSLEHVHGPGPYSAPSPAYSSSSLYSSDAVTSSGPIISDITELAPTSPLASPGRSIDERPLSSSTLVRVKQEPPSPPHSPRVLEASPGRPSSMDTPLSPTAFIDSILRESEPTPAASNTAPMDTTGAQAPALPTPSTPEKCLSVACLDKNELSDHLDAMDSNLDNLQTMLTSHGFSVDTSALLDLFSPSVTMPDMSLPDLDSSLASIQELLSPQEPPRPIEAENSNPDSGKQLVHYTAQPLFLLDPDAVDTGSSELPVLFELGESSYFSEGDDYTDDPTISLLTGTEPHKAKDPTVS

[6] = inhibitors of intracellular T. cruzi replication, confirmation, NIH3T3 host cells, beta-gal luminescence (AID 2044); assay type: functional, cell-based;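 further: intracellular parasites grown in NIH/3T3 mouse fibroblasts as host cells; luminescent beta-galactosidase reporter signal from transgenic T. cruzi replicating inside host cells; inhibitors lower the luminescence signal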
[7] = target: T3, Microphthalmia-associated transcription factor (Homo sapiens, UniProt O75030); experiment: TRPM1 promoter luciferase signal decrease, dose response, MITF inhibitor project, cell-based, SK-MEL-5, cherry-picked, set 3 (AID 493073); assay type: functional
T3 sequence (O75030 whole entry): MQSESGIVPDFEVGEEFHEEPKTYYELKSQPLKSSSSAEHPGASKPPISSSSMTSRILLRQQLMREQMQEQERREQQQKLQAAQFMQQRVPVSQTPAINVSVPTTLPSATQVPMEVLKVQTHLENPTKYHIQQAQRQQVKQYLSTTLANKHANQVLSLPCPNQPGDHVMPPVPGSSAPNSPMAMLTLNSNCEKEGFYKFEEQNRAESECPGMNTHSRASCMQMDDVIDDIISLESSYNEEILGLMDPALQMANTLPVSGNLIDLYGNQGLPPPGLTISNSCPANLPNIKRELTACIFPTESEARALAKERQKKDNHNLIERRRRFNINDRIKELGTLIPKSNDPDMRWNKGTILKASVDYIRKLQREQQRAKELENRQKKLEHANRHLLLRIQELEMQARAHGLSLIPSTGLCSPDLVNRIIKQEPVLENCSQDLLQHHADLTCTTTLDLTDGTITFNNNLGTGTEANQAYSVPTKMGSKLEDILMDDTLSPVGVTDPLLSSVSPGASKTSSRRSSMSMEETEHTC

[8] = target: Sphingosine 1-phosphate receptor 1 (Homo sapiens, UniProt P21453); assay type: functional;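 further: Tango beta-arrestin reporter U2OS cells stimulated with S1P near its EC80; inhibitor potency meaning antagonism of receptor activation by the natural agonist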
[9] = cytotoxicity toward NIH3T3 fibroblasts, dose response, counter-screen, cell-based, ATP luminescence, mouse fibroblasts (AID 2010); assay type: functional;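 further: cells exposed to compound for about 90 hours before reading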
[10] = target: T4, Sphingosine 1-phosphate receptor 4 (Homo sapiens, UniProt O95977); experiment: Fluorescence dose response cell-based high throughput screening assay for antagonists of the Sphingosine 1-Phosphate Receptor 4 (S1P4). [Related pubchem assays: 1524 (Confirmation in triplicates.), 1510 (Primary screen.)]; assay type: functional
T4 sequence (O95977 whole entry): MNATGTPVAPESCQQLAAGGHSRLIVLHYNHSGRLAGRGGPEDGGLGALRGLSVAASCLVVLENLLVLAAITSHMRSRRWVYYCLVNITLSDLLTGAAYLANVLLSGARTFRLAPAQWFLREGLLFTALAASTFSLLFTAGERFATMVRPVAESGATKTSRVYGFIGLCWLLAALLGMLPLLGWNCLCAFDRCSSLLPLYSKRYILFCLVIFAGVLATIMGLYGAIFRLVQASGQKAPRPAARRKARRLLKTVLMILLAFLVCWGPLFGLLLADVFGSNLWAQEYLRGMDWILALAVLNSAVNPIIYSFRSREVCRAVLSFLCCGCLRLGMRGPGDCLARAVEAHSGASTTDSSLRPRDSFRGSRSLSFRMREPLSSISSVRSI

[11] = cytotoxicity in HEK-293T cells, dose response, cytotoxicity control for TCR NF-kB inhibitor project, luminescence, T-cell screen hits (AID 489026); assay type: functional, cell-based;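 further: cells exposed to compound about 14 hours before the viability readout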
BJ [12] = experiment: cytotoxicity toward Ras-transformed BJeLR fibroblasts, dose response, cell-based, alamar blue fluorescence, cherrypicked samples (AID 2631); assay type: functional; conditions: Homo sapiens;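 further: confirmatory dose-response assay in RAS-dependent BJ fibroblasts engineered with TERT, LT and ST, with cytotoxicity read by fluorescence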
INS1 = experiment: beta cell apoptosis inhibitors, cytokine rescue, dose response, luminescence, retest (AID 449756); assay type: functional, cell-based; conditions: Rattus norvegicus;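 further: cell death triggered by IL-1 beta plus TNF-alpha plus IFN-gamma mixture; protective hits raise ATP signal compared with cytokine alone wells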
BJ [13] = experiment: cytotoxicity toward BJ-TERT fibroblasts, dose response, cell-based, RAS-independent, luminescence (AID 1933); assay type: functional; conditions: Homo sapiens
BJ [14] = experiment: cytotoxicity toward BJ-TERT-LT-ST fibroblasts, dose response, cell-based, RAS-independent, luminescence (AID 1935); assay type: functional; conditions: Homo sapiens;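 further: BJ fibroblasts immortalized with TERT plus LT and ST oncogenes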
BJ [15] = experiment: cells; assay type: functional, cell-based; conditions: Homo sapiens
[16] = cytotoxicity toward DRD oncogenic fibroblasts, dose response, cell-based, non-viral oncogenic, luminescence (AID 1934); assay type: functional; conditions: Homo sapiens
Bcl-2-like protein 10 = target: T5, Bcl-2-like protein 10 (Homo sapiens, UniProt Q9HD36); experiment: displacers of TR3 peptide from Bcl-B, primary screen, selectivity assay for Bfl-1 inhibitor project, biochemical, fluorescence polarization, FITC-TR3 peptide (AID 748);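 further: fluorescence polarization from a fluorescein-labelled TR3 peptide binding purified Bcl-B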
T5 sequence (Q9HD36 whole entry): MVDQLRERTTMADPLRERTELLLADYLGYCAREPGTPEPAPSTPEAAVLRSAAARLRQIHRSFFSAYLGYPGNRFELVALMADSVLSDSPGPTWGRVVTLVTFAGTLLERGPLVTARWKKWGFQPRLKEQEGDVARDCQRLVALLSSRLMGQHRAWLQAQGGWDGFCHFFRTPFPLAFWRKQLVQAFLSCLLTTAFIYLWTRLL

Estrogen receptor beta [17] = target: T6, Estrogen receptor beta (Homo sapiens, UniProt Q92731);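 further: recombinant ER-beta bound to coactivator SRC1 peptide in presence of estradiol agonist; inhibitors block coactivator peptide binding and lower the FRET signal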
[18] = target: T7, Carboxy-terminal domain RNA polymerase II polypeptide A small phosphatase 1 (Homo sapiens, UniProt Q9GZU7); experiment: inhibitors of CTDSP1, concentration-response testing, biochemical assay, absorbance-based, actives from ultra-high-throughput screening (AID 540297); assay type: functional
T7 sequence (Q9GZU7 whole entry): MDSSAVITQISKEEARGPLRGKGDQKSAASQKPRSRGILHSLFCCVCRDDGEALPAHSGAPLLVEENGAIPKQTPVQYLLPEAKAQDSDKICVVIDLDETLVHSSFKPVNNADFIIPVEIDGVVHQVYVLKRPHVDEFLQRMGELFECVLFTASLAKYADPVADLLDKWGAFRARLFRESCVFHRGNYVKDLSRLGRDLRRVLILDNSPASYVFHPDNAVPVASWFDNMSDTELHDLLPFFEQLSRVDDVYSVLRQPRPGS

[19] = A cytotoxicity screen of small molecule inhibitors of the PhoP region in Salmonella typhi identified in the primary screen. [Related pubchem assays: 1850, 1864, 1985 ]; assay type: functional
[20] = Vero E6 cell cytotoxicity, dose response, cytotoxicity control for non-replicating M. tuberculosis project, secondary assay (AID 492998); assay type: functional, VeroE6; conditions: Vero C1008
[21] = THP-1 cell cytotoxicity, dose response, cytotoxicity control for non-replicating M. tuberculosis project (AID 489025); assay type: functional
cells [22] = experiment: cells
SUMO-activating enzyme [23] = target: T8, SUMO-activating enzyme (Homo sapiens, UniProt Q9UBT2); experiment: SUMOylation inhibitor hit validation, confirmation, SUMOylation inhibitor project, biochemical, AlphaScreen (AID 2018); assay type: functional
SUMO-activating enzyme [24] = target: T8, SUMO-activating enzyme; experiment: inhibitors of in vitro SUMOylation cascade, primary screen, biochemical, HTRF, uHTS (AID 2006); assay type: protein-complex assay
[25] = Jurkat T cell cytotoxicity, dose response, cytotoxicity control for P. falciparum gametocyte viability project, luminescence (AID 1117277); assay type: functional, cell-based;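 further: potency reflects loss of cellular ATP meaning fewer viable cells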
[26] = P. falciparum late gametocyte killing, dose response, luminescence (AID 1117278); assay type: functional, cell-based;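 further: gametocytes exposed to compound for 24 hours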
Estrogen receptor beta [27] = target: T6, Estrogen receptor beta; experiment: ERβ–SRC-3 coactivator interaction inhibitors, confirmation, orthogonal assay, biochemical, ELISA, streptavidin-HRP readout (AID 1060)
[28] = target: Voltage-dependent T-type calcium channel subunit alpha-1H (Homo sapiens, UniProt O95180); assay type: functional;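 further: channel activity triggered by adding a high calcium stimulation buffer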

Sequence of Protein-tyrosine kinase 2-beta (Q14289 whole entry): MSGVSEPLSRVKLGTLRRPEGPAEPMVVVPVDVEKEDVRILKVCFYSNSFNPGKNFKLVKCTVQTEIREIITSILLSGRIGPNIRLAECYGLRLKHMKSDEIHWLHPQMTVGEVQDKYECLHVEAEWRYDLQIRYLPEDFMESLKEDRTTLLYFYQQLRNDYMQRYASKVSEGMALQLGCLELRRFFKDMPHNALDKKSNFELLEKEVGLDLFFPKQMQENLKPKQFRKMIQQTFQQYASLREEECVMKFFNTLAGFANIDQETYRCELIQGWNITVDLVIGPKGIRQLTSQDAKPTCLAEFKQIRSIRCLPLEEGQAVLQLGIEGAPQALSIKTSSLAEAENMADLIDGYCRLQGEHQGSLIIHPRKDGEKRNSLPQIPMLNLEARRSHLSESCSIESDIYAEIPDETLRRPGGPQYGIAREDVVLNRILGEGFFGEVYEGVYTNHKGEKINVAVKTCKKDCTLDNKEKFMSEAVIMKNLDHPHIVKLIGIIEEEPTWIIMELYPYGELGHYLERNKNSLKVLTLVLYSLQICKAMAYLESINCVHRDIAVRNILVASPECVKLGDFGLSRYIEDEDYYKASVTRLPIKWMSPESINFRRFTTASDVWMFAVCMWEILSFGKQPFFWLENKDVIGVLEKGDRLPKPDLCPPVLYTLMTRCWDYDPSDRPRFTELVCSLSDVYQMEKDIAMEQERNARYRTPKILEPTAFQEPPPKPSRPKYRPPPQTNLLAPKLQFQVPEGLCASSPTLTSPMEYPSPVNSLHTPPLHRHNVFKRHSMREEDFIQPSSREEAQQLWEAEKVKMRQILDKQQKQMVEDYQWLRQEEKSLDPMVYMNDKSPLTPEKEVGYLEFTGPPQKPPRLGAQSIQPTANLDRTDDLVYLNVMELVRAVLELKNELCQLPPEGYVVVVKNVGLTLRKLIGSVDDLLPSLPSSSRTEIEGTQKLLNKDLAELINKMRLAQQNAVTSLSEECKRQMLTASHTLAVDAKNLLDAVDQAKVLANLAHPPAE
T6 sequence (Q92731 whole entry, the tested form may be a part): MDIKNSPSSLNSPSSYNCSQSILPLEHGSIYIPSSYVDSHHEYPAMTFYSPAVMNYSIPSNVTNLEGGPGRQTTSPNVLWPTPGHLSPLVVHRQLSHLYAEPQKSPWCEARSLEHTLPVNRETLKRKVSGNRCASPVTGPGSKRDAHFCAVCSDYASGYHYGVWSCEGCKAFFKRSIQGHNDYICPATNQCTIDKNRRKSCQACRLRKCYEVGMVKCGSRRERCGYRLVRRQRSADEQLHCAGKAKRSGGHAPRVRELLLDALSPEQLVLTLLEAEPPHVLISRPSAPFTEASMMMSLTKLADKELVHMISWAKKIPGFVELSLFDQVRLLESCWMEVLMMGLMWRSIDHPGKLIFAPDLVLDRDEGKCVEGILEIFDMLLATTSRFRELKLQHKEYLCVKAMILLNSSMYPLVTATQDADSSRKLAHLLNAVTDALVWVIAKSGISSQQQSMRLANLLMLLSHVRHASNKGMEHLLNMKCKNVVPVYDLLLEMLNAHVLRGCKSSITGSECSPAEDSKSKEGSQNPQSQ
Sequence of Sphingosine 1-phosphate receptor 1 (P21453 whole entry): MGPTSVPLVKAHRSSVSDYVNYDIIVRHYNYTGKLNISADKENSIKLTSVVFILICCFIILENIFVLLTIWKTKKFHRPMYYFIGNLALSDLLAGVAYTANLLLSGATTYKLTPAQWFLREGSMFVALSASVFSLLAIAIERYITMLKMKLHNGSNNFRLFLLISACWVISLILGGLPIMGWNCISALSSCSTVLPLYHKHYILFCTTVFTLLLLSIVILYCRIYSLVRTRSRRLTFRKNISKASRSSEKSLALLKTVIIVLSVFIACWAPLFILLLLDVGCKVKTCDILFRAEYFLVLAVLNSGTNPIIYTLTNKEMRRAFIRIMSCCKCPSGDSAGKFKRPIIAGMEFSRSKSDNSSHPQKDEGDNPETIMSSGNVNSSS
T8 sequence (Q9UBE0 whole entry): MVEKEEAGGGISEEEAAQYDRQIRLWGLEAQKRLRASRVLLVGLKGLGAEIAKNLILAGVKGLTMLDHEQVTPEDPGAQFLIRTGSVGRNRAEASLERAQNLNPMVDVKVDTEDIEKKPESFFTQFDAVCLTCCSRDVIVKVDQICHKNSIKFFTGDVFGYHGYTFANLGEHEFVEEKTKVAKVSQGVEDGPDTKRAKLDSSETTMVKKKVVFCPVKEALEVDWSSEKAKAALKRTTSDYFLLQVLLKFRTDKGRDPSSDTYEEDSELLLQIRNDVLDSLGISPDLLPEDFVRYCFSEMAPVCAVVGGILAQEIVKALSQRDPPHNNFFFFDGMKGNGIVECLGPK
T8 sequence (Q9UBT2 whole entry): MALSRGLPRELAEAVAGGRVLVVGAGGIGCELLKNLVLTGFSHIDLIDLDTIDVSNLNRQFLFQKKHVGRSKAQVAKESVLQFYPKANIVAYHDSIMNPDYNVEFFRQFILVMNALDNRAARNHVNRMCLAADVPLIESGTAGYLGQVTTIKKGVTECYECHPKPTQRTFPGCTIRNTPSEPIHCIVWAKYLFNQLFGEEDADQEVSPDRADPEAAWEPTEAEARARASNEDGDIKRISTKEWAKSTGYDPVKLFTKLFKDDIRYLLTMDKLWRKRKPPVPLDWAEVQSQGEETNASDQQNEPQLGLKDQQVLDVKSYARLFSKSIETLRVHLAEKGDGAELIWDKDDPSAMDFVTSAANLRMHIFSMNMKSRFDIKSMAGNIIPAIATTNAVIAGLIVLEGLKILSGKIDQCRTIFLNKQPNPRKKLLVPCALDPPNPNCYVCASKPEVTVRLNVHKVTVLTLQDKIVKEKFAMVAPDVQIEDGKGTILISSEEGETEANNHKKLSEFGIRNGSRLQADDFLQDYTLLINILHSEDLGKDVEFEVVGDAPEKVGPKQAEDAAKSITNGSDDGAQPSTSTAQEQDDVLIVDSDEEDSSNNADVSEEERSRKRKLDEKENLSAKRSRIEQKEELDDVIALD

In the case of CCOC(=O)CNCCC(=O)c1ccc(Br)cc1, the IC50 [1] was > 50 µM (not active), the IC50 (cells [2]) was 20.4 µM (active) and the IC50 [3] was > 50 µM (not active).

With Cc1ccc(-c2onc3ccc(C=O)cc23)cc1 the IC50 [4] was 30.1 µM (not active).

For CC(=O)Cn1ncc(Br)c(Br)c1=O, the EC50 [5] was 12.4 µM (active), the EC50 [6] was 1.24 µM (active) and the AC50 [7] was 15.8 µM (active). The IC50 [8] was 16.6 µM (not active), the EC50 [9] was 0.976 µM (active) and the IC50 [10] was 4.22 µM (active).

With O=S1(=O)C=C(Sc2nc3ccccc3s2)c2ccccc21 the IC50 [11] was 60.3 µM (inactive), the EC50 (BJ [12]) was 0.13 µM (active) and the EC50 [5] was 3.93 µM (inconclusive). The AC50 (INS1) was 3.36 µM (active), the EC50 (BJ [13]) was 1.23 µM (active) and the EC50 (BJ [14]) was 1.73 µM (inconclusive). For the same compound, the EC50 (BJ [15]) was 6.14 µM (inconclusive), the EC50 [16] was 3.3 µM (active) and the IC50 [8] was 12.6 µM (not active). For the same compound, the IC50 [10] was 0.474 µM (active).

With COc1ccccc1-c1nnc2sc(-c3cnccn3)nn12 the IC50 (Bcl-2-like protein 10) was 28.5 µM (active), the IC50 (Estrogen receptor beta [17]) was 4.15 µM (active) and the IC50 [18] was 9.06 µM (active).

With CCOc1ccc(NC(=O)CN(C)C(=O)c2ccccc2CCc2ccccc2)cc1OCC the EC50 [19] was > 50 µM (active).

In the case of CCN1CCN(c2ccc(S(=O)(=O)N3CCCCC3)cc2NC(=O)c2ccc([N+](=O)[O-])s2)CC1, the IC50 (cells [2]) was 7.51 µM (active), the EC50 [6] was < 0.1 µM (active) and the AC50 (INS1) was 3.46 µM (active). The CC50 [20] was 8.95 µM (active), the EC50 [9] was 6.56 µM (active) and the CC50 [21] was 10.5 µM (active). For the same compound, the EC50 (cells [22]) was 0.052 µM (active).

In the case of O=C(CCC1CCCN(Cc2ccc(O)c(Cl)c2)C1)NCc1ccccc1F (centres undefined), the EC50 [6] was < 0.1 µM (active), the EC50 [9] was > 60 µM (not active) and the EC50 (cells [22]) was 0.077 µM (active).

In the case of Cn1c2ccccc2c(=O)n2c(=O)c3ccccc3cc12, the IC50 (SUMO-activating enzyme [23]) was 3.28 µM (active), the IC50 (SUMO-activating enzyme [24]) was 10.9 µM (active) and the IC50 [4] was > 69.5 µM (not active).

In the case of O=C(N/N=C/c1ccc2ccccc2c1)c1ccc(COc2ccc3c(c2)CCC3)o1, the IC50 [4] was > 69.5 µM (not active) and the IC50 [18] was 3.24 µM (active).

For N#Cc1c(NCCO)nc(NCc2ccccc2)c2c1CCN(Cc1ccccc1)C2, the IC50 [1] was > 50 µM (not active) and the IC50 [3] was > 50 µM (not active).

With Cc1cc(C(=O)NCCC2=CCCCC2)no1 the IC50 [25] was > 83.3 µM (inactive) and the IC50 [26] was > 109 µM (inactive).

For O=C(Nc1cccc2cccc(NC(=O)c3ccco3)c12)c1ccco1, the IC50 (Estrogen receptor beta [27]) was > 50 µM (not active) and the IC50 (Estrogen receptor beta [17]) was 15.5 µM (active).

For CN1CCN(CC(=O)Nc2sc3c(c2C#N)CCC3)CC1, the IC50 (Estrogen receptor beta [27]) was > 50 µM (not active).

With CCCn1nnc(NC(=O)c2ccc(-c3cccc(Cl)c3)o2)n1 the IC50 [25] was > 83.4 µM (inactive), the EC50 [28] was 6.81 µM (active) and the IC50 [26] was > 109 µM (inactive).
